Results: patent US20050261290A1, “Novel compounds of proline and morpholine derivatives” (priority 2004, published 2005)
Like-named read-outs stand apart in the source and are kept apart here.

Biological target: human 11b-hsd-1 (Homo sapiens, UniProt P28845)
Test: Inhibition constant Ki of human 11b-hsd-1 (3H-cortisone to 3H-cortisol conversion, HPLC)
Format: biochemical
Conditions: for Ki: apparent Ki, read-out: Ki app
Protocol: In each well, varying amounts of compounds are incubated with a fixed amount of 11b-hsd-1 (4 nM) and NADPH (500 μM) for 30 to 40 min at room temperature in the assay buffer. The enzyme concentration was determined by titration using reversible tight-binding inhibitors. […] The area of 3H-cortisol is calculated and plotted versus time to determine a linear velocity. […] Where vi, and vo are the rates of cortisol formation in the presence and in the absence of inhibitor, respectively, I is the inhibitor concentration and E is the 11 b-hsd-1 concentration in the assay buffer. […] NADPH, Glucose-6-Phosphate (G6P), and Glucose-6-Phosphate dehydrogenase was purchased from Sigma.

human 11b-hsd-1, sequence (P28845 whole entry): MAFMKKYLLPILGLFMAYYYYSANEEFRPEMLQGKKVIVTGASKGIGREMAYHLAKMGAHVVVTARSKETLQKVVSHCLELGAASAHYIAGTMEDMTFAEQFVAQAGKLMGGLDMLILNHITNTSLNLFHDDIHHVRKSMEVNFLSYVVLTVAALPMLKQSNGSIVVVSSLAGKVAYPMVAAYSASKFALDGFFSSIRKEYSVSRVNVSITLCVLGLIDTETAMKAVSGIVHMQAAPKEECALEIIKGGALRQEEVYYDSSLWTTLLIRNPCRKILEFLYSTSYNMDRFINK

Compound	inhibition at 0.1 µM (0.1 μM compound) [%]	Ki [nM]	inhibition at 0.1 µM (compound at 0.1 μM) [%]	Ki (human 11b-hsd-1) [nM]
O=C(NCc1ccc(F)cc1F)[C@H]1CCCN1Cc1ccccc1 [Example 236]	76.8	66		
CC(C)CN1CCC[C@@H]1C(=O)NCc1ccccc1Cl [Example 257]	100	2.1		
C[C@@H](NC(=O)[C@H]1COCCN1Cc1ccccc1)c1ccc(Cl)cc1 [Example 314]	94.8	8.96		
O=C(NC1C2CC3CC(C2)CC1C3)[C@H]1C[C@@H](O)CN1Cc1ccccc1 (some centres unmarked) [Example 26]			100	1
CC(C)CN1CSC[C@@H]1C(=O)NC12CC3CC(CC(C3)C1)C2 [Example 208]	100	1		
O=C(NC1C2CC3CC(C2)CC1C3)[C@@H]1C[C@H](Oc2ccccc2Cl)CN1 (some centres unmarked) [Example 360]	100	1.4		
O=C(NC1C2CC3CC(C2)CC1C3)[C@@H]1C[C@H](Oc2cc(F)ccc2F)CN1 (some centres unmarked) [Example 352]	100	1		
CC(C)CN1CCOC[C@@H]1C(=O)NCc1ccc(F)cc1 [Example 34]			79	18
O=C(N[C@@H]1CCCc2ccccc21)[C@H]1COCCN1Cc1ccccc1 [Example 313]	97	4.89		
O=C(N[C@H]1c2ccccc2C[C@H]1O)[C@H]1COCCN1Cc1ccccc1 [Example 301]	89.2	11.1		
N#Cc1ccc(CN2CCC[C@@H]2C(=O)NCc2ccccc2)cc1 [Example 323]	69.7	110		
CC(C)CN1CCC[C@@H]1C(=O)NC(C)c1ccc(F)cc1 (some centres unmarked) [Example 290]	96.2	6.85		
CCC1CCCCN1C(=O)[C@H]1CSCN1Cc1ccc(Cl)cc1 (some centres unmarked) [Example 198]	100	2.5		
Cc1cccc(O[C@@H]2CN[C@H](C(=O)NC3C4CC5CC(C4)CC3C5)C2)c1 (some centres unmarked) [Example 348]	100	2.7		
CC(C)CN1CCOC[C@@H]1C(=O)NCc1c(F)cccc1F [Example 32]			67	
Cc1cc(O[C@@H]2CN[C@H](C(=O)NC3C4CC5CC(C4)CC3C5)C2)ccc1F (some centres unmarked) [Example 351]	100	1		
CC(C)CN1C[C@H](O)C[C@@H]1C(=O)NC1C2CC3CC(C2)CC1C3 (some centres unmarked) [Example 25]			100	1.7
O=C(NC12CC3CC(CC(C3)C1)C2)C1COCCN1CCC1CCOCC1 (centres unmarked) [Example 185]			91.3	14
CCc1ccccc1O[C@@H]1CN[C@H](C(=O)NC2C3CC4CC(C3)CC2C4)C1 (some centres unmarked) [Example 350]	100	2.2		

Compound	inhibition at 0.1 µM (0.1 μM compound) [%]	Ki [nM]	inhibition at 0.1 µM (compound at 0.1 μM) [%]	Ki (human 11b-hsd-1) [nM]
O=C(NCc1ccc(F)cc1F)[C@H]1COCCN1Cc1ccccc1 [Example 280]	81.6	49		
Cc1ccccc1CNC(=O)[C@H]1CCCN1Cc1ccccc1 [Example 246]	87.7	16		
O=C(NCc1ccc(F)cc1F)[C@H]1CCCN1CCC(F)(F)F [Example 242]	78.9	44		
CC12C3C4C1C1C2C3C41NC(=O)[C@H]1CCCN1 (some centres unmarked) [Example 143]			10	
O=C(NCc1ccc(F)cc1)[C@H]1CCCN1Cc1ccc(Cl)cc1 [Example 235]	83.8	25		
Cc1ccc(O[C@@H]2CN[C@H](C(=O)NC3C4CC5CC(C4)CC3C5)C2)cn1 (some centres unmarked) [Example 343]	98.6	6.3		
CC(C)CN1CCOC[C@@H]1C(=O)NCc1ccccc1F [Example 57]			81	23.4
CC(C)N1CCC(CN2C[C@H](O)C[C@@H]2C(=O)NC2C3CC4CC(C3)CC2C4)CC1 (some centres unmarked) [Example 76]			14	
N#Cc1ccccc1CN1CCC[C@@H]1C(=O)N[C@@H]1CCc2ccccc21 [Example 284]	93.1	11.5		
CC1(C)CC(NC(=O)C2COCCN2Cc2cccc(C#N)c2)CC(C)(C)C1 (centres unmarked) [Example 187]			100	3
CCOc1cccc(O[C@@H]2CN[C@H](C(=O)NC3C4CC5CC(C4)CC3C5)C2)c1 (some centres unmarked) [Example 358]	100	4.5		
N#Cc1ccc(CN2CCC[C@@H]2C(=O)N[C@@H]2CCCc3ccccc32)cc1 [Example 297]	100	3.7		
O=C(NC1C2CC3CC(C2)CC1C3)[C@H]1COCCN1CC1CC1 (some centres unmarked) [Example 279]	100	3		
COc1ccccc1CNC(=O)[C@H]1CCCN1CCC(F)(F)F [Example 263]	77.5	62		
Cc1ncccc1CNC(=O)[C@H]1CCCN1CC(C)C [Example 40]			100	19
N#Cc1ccc(CN2CCOC[C@@H]2C(=O)N[C@@H]2CCCc3ccccc32)cc1 [Example 315]	96.1	6.63		
O=C(NCc1c(F)cccc1F)[C@H]1CCCN1Cc1ccc(Cl)cc1 [Example 244]	87.1	18		
O=C(N[C@@H]1CCc2ccccc21)[C@H]1COCCN1Cc1ccccc1 [Example 304]	59.4	3.6		

More lines, now with the values ahead:

inhibition at 0.1 µM (0.1 μM compound) [%]	Ki [nM]	inhibition at 0.1 µM (compound at 0.1 μM) [%]	Ki (human 11b-hsd-1) [nM]	Compound
		59.4		CN(C)CCN1CCOC[C@@H]1C(=O)NC1C2CC3CC(C2)CC1C3 (stereo partly drawn) [Example 44, (3R)-N-2-adamantyl-4-[2-(dimethylamino)ethyl]morpholine-3-carboxamide]
100	1.3			O=C(NC12CC3CC(CC(C3)C1)C2)[C@H]1CCCN1Cc1ccccc1 [Example 248]
		100		C[C@H](N)CN1CCC[C@@H]1C(=O)NC1C2CC3CC(C2)CC1C3 (some centres unmarked) [Example 176]
		100	1.8	O=C(NC12CC3CC(CC(C3)C1)C2)C1COCCN1CC1CCCCC1 (centres unmarked) [Example 181]
100	2.4			N#Cc1ccc(CN2CCOC[C@@H]2C(=O)NCC2CCCCC2)cc1 [Example 334]
		100	2	CCCN1CCC[C@@H]1C(=O)NC1CCCCCC1 [Example 93]
76	60			COc1cccc(CNC(=O)[C@H]2CCCN2CC2CCCC2)c1 [Example 262]
		70	28	CCN1CCC[C@@H]1C(=O)NC1CCCCC1C (some centres unmarked) [Example 58]
86.1	32			C[C@@H](NC(=O)[C@H]1COCCN1CC1CCCC1)c1ccccc1 [Example 309]
91.6	36			CCC1CCCCN1C(=O)[C@H]1CSCN1CC(C)C (some centres unmarked) [Example 200]
		100		O=C(NC1C2CC3CC(C2)CC1C3)[C@H]1CCCN1CC1CCNC1 (some centres unmarked) [Example 142]
		90.4	7.9	CCCN1CCC[C@@H]1C(=O)NC1Cc2ccccc2C1 [Example 38]
		71		O=C(NC1C2CC3CC(C2)CC1C3)[C@H]1CCCN1Cc1ccn[nH]1 (some centres unmarked) [Example 126]
100	5.2			CC(C)CN1CCCCC1C(=O)NC12CC3CC(CC(C3)C1)C2 (centres unmarked) [Example 206]
99.1	3.2			O=C(NC1CCCCC1)[C@H]1COCCN1Cc1ccccc1 [Example 302]
		77		CCN(CC)CCN1CCC[C@@H]1C(=O)NC1C2CC3CC(C2)CC1C3 (some centres unmarked) [Example 109]
		100		CS(=O)(=O)N1CCC(CN2CCC[C@@H]2C(=O)NC2C3CC4CC(C3)CC2C4)CC1 (some centres unmarked) [Example 140]
		100		CC(C)(C)OC(=O)N1CCC[C@@H]1CN1CCC[C@@H]1C(=O)NC1C2CC3CC(C2)CC1C3 (some centres unmarked) [Example 113]

inhibition at 0.1 µM (0.1 μM compound) [%]	Ki [nM]	inhibition at 0.1 µM (compound at 0.1 μM) [%]	Ki (human 11b-hsd-1) [nM]	Compound
		100		O=C(NC1C2CC3CC(C2)CC1C3)[C@H]1CCCN1CCN1CCOCC1 (some centres unmarked) [Example 128]
		100		COC(C)(C)CN1CCC[C@@H]1C(=O)NC1C2CC3CC(C2)CC1C3 (some centres unmarked) [Example 120]
81.4	32			O=C(NCc1c(F)cccc1F)[C@H]1CCCN1CC1CCCC1 [Example 241]
80.3	36			O=C(NCc1ccc(Cl)cc1)[C@H]1CCCN1CC1CCCC1 [Example 227]
		76		O=C(NC1C2CC3CC(C2)CC1C3)[C@H]1CCCN1C[C@@H]1CCCN1 (some centres unmarked) [Example 141]
		81		CCCN1CCC[C@H](C(=O)NC2C3CC4CC(C3)CC2C4)C1 (some centres unmarked) [Example 125]
		85	16.4	CC(=O)N1CCC[C@@H]1C(=O)NC1C2CC3CC(C2)CC1C3 (stereo partly drawn) [Example 18, N-2-adamantyl-1-acetyl-D-prolinamide]
		100		O=C(NC1C2CC3CC(C2)CC1C3)[C@H]1CCCN1CC1CCOC1 (some centres unmarked) [Example 115]
100	4.5			O=C(N[C@@H]1CCCc2ccccc21)[C@H]1CCCN1Cc1ccccc1 [Example 295]
88.7	10			O=C(NC1CCCCC1)[C@@H]1C[C@H](Oc2ccc(Cl)cc2)CN1 [Example 370]
		100	< 1	O=C(NC1CCc2ccccc21)[C@H]1CCCN1CC1CCCC1 (some centres unmarked) [Example 39]
		100	0.85	O=C(NC12CC3CC(CC(C3)C1)C2)[C@H]1CCCN1CC(F)(F)F [Example 22]
		100		CCCN1CCC[C@@H]1C(=O)N[C@H]1C[C@@H]2CC[C@H]1C2 [Example 90]
100	2.34			O=C(NC1CCCCC1)[C@H]1CCCN1Cc1ccccc1 [Example 282]
		87		CCCN1CCC[C@@H]1C(=O)NC1CCC(F)(F)CC1 [Example 137]
		100		CS(=O)(=O)N1CCC[C@H]1CN1CCC[C@@H]1C(=O)NC1C2CC3CC(C2)CC1C3 (some centres unmarked) [Example 135]
89.3	54			O=C(NCc1ccc(F)cc1)[C@H]1CCCN1CC1CCCC1 [Example 228]
		82	15	CCC(C)N1CCC[C@@H]1C(=O)NC1CCCCC1 (some centres unmarked) [Example 105]
